Experimental data published in paper PMC7284125, “Identification of annotated bioactive molecules that impair motility of the blood fluke Schistosoma mansoni” (International Journal for Parasitology: Drugs and Drug …, 2020).
Like-named read-outs stand apart in the source and are kept apart here.

What was measured:
[1] = test system: S. mansoni schistosomulae; test: Phenotypic primary screen assay on schistosomulae (phenotype; viability by methylene blue dye exclusion); assay type: cell-based; conditions: Schistosoma mansoni; three-day-old schistosomulae, 10 μM, 24 h; calculated 5 days post compound exposure; read-out: Viability (%)
S. mansoni adult worms = test: Motility assay on adult parasites (pixel displacement, relative to DMSO control); assay type: cell-based, Schistosoma mansoni; conditions: 10 μM; for Fractional motility: secondary screen; for motility phenotype in words: adults, long-term after washout
In short: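 Unpaired adult worms from mice 6 weeks post-infection kept in OPTI-MEM with 5% dialyzed FBS and exposed to compounds at 1 and 10 μM for 24 h. Motility filmed 1 min at 10 frames/s, quantified by pixel displacement versus DMSO-treated worms; recovery followed up to five days after washout.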

[2] = test system: S. mansoni schistosomulae; test: Phenotypic primary screen assay on schistosomulae (phenotype; viability by methylene blue dye exclusion); assay type: cell-based, Schistosoma mansoni; conditions: three-day-old schistosomulae, 10 μM, 24 h; estimated 5 days post compound exposure
In short: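 Parasites lacking contraction/relaxation cycles and showing dark internal granulations counted as dead. Movement and body shape were compared with DMSO-treated controls under a stereo microscope at 24 h and at five days of exposure. Larvae came from infected snails shed under light for 2 h at 32 °C.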

[3] = test system: S. mansoni schistosomulae; test: Motility assay on schistosomulae (pixel displacement, relative to DMSO control); assay type: cell-based, Schistosoma mansoni; conditions: for activity at 1 µM: Schistosoma mansoni, read-out: Fractional motility
In short: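 Mechanically transformed S. mansoni schistosomulae (200/well) in Opti-MEM with 5% dialyzed FBS were exposed to compounds at 1 and 10 μM for 24 h at 37 °C, 5% CO2. Motility filmed at 10 frames/s for 1 min and quantified by pixel displacement relative to DMSO-treated controls.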

[4] = 120 h, schistosomulae, secondary screen, 24h exposure, read at D5, 1 µM
[5] = schistosomulae, secondary screen, 24h exposure, read at D1, 1 µM
[6] = schistosomulae, secondary screen, 24h exposure, read at D1, 10 µM
[7] = schistosomulae, secondary screen, 24h exposure, read at D5, 10 µM

Row | SMILES | viability at 10 µM [1] [%] | Fractional motility (S. mansoni adult worms; D1, Female adult worms) | Fractional motility (S. mansoni adult worms; D1, Male adult worms) | Fractional motility (S. mansoni adult worms; D5, Female adult worms) | Fractional motility (S. mansoni adult worms; D5, Male adult worms) | Phenotype [2] | activity at 1 µM [3, 4] [%] | activity at 1 µM [3, 5] [%] | Fractional motility [3, 6] | Fractional motility [3, 7] | other results
1 | C=CC(=O)N1CCC[C@@H](n2nc(-c3ccc(Oc4ccccc4)cc3)c3c(N)ncnc32)C1 [Ibrutinib] | 84.5 | 0.33 | 2.36 | 0.36 | 0.94 | dark, granulated | 244 | -18 | 0.000588 | -0.29 | –
2 | CC(C(O)c1ccc(O)cc1)N1CCC(Cc2ccccc2)CC1 (centres unmarked) [Ifenprodil] | 98.5 | 1.05 | 1.73 | -0.36 | -0.44 | abnormal morphology, granulated | 11 | 81 | 0.47 | -0.10 | –
3 | Cc1ccc(C(=O)N(CCCN)[C@@H](c2nc3cc(Cl)ccc3c(=O)n2Cc2ccccc2)C(C)C)cc1 [Ispinesib] | 96 | 3.19 | 2.22 | -0.34 | -0.33 | big, granulated | 125 | 24 | -0.92 | -0.39 | –
4 | Cc1cc(Nc2ncc(Cl)c(Nc3ccccc3S(=O)(=O)C(C)C)n2)c(OC(C)C)cc1C1CCNCC1 [LDK378] | 0 | -0.38 | -0.0381 | -0.63 | -0.31 | dark, granulated | 120 | 7 | -0.83 | -0.96 | motility phenotype in words (S. mansoni adult worms): Significant hypomotility
5 | CCOC(=O)C1=C(C)NC(C)=C(C(=O)OCC)C1c1ccccc1/C=C/C(=O)OC(C)(C)C [Lacidipine] | 99 | -0.73 | -0.50 | -0.82 | -0.53 | granulated | -11 | 99 | 3.79 | 0.28 | –
6 | Cc1cccc(C(C)c2cnc[nH]2)c1C (centres unmarked) [Medetomidine] | 100 | 1.05 | 2.75 | -0.85 | 0.31 | elongated | 10 | -39 | -0.24 | 0.20 | –
7 | NCC(=O)Nc1ccc(-n2nc(C(F)(F)F)cc2-c2ccc3c(ccc4ccccc43)c2)cc1 [OSU-03012] | 1 | 0.79 | 1.37 | -0.15 | 0.62 | big, granulated | 26 | 26 | -1.00 | -0.72 | –
8 | CCCCCCCCOc1ccccc1C(=O)Nc1ccc(C(=O)OCC[N+](C)(CC)CC)cc1 [Otilonium] | 98.5 | 0.10 | 0.16 | -0.67 | -0.65 | blebbing | 31 | -72 | 0.56 | -0.13 | –
9 | CCCN1C[C@H](CSC)C[C@@H]2c3cccc4[nH]cc(c34)C[C@H]21 [Pergolide] | 99 | 0.25 | 2.14 | -0.82 | -0.30 | big, round | -25 | 139 | 18.64 | -0.34 | –
10 | COCCCN1CCC(NC(=O)c2cc(Cl)c(N)c3c2OCC3)CC1 [Prucalopride] | 96 | -0.26 | 0.72 | -0.27 | 0.34 | elongated | -11 | 121 | 6.36 | -0.28 | –
11 | CC(C)(C)c1cc(NC(=O)Nc2ccc(-c3cn4c(n3)sc3cc(OCCN5CCOCC5)ccc34)cc2)no1 [Quizartinib] | 54 | 0.64 | 4.64 | -0.59 | -0.09 | granulated | -2.37 | – | – | -0.36 | –
12 | Cc1c(C(=O)NN2CCCCC2)nn(-c2ccc(Cl)cc2Cl)c1-c1ccc(Cl)cc1 [Rimonabant] | 98.5 | -0.30 | 0.0659 | -0.41 | -0.55 | abnormal morphology, granulated | -21 | 433 | 12.27 | 4.07 | –
13 | Cc1ccc(C(=O)N(CCCN)[C@@H](c2oc3cc(Cl)ccc3c(=O)c2Cc2ccccc2)C(C)C)cc1 [SB743921] | 70 | 1.14 | 1.48 | -0.87 | 0.0641 | big, dark | 17 | 74 | 1.32 | -0.89 | –
14 | CN1CCC(CNc2ccc3ncc(-c4cccc(OC(F)(F)F)c4)n3n2)CC1 [SGI-1776] | 92.5 | 3.98 | 9.87 | 0.50 | 0.36 | dark | – | – | – | – | activity at 1 µM ([3]; 120 h, Selleckchem customized library secondary screen, 24h, D5, 1 µM): 35%; Fractional motility ([3]; Selleckchem customized library secondary screen, 24h, D1, 10 µM): 121.95; Fractional motility ([3]; Selleckchem customized library secondary screen, 24h, D5, 10 µM): 114.81; stimulated motility relative to control ([3]; schistosomulae, throughout the course of the experiment): > 100 fold
15 | O=C(O[C@H]1CN2CCC1CC2)N1CCc2ccccc2[C@@H]1c1ccccc1 [Solifenacin] | 96.5 | 1.59 | 2.65 | -0.55 | 0.28 | elongated, granulated, blebbing | – | – | 1.46 | 0.44 | activity at 1 µM ([3]; 24 h): -30%; activity at 1 µM ([3]; 120 h): -59%
16 | COc1ccc2cc1Oc1ccc(cc1)C[C@H]1c3cc(c(OC)cc3CCN1C)Oc1c(OC)c(OC)cc3c1[C@H](C2)N(C)CC3 [Tetrandrine] | 89 | -0.51 | -0.37 | -0.97 | -0.61 | big, granulated | -31 | -9 | -0.39 | -0.87 | motility phenotype in words (S. mansoni adult worms): strongly impaired movement
17 | CNCc1ccc(-c2cc(-c3nc(-c4ccc(S(=O)(=O)C(C)C)cc4)cnc3N)on2)cc1 [VE-822] | 11.5 | -0.46 | -0.30 | -0.67 | -0.66 | dark, granulated | -14 | -37 | -0.68 | -0.83 | motility phenotype in words (S. mansoni adult worms): Significant hypomotility; Fractional motility ([3]; schistosomulae, 1h exposure, read at D1, 10 µM): -0.26; Fractional motility ([3]; schistosomulae, 1h exposure, read at D5, 10 µM): -0.63; Fractional motility ([3]; schistosomulae, 3h exposure, read at D1, 10 µM): -0.72; Fractional motility ([3]; schistosomulae, 3h exposure, read at D5, 10 µM): -0.69; Fractional motility ([3]; schistosomulae, 6h exposure, read at D1, 10 µM): 3.57; Fractional motility ([3]; schistosomulae, 6h exposure, read at D5, 10 µM): 0.02; motility in extended assay with reduced incubation times, in words ([3]; three-day old schistosomulae, incubation 1 h, 3 h, 6 h): did not exhibit a significant change before the 24 hr incubation cut-off
18 | C=CC(=O)Nc1cccc(Oc2nc(Nc3ccc(N4CCN(C)CC4)cc3OC)ncc2Cl)c1 [WZ4002] | 7 | 0.66 | 0.64 | -0.61 | 1.33 | dark, granulated | 51 | -58 | – | -0.62 | motility phenotype in words (S. mansoni adult worms): hypermotility in male worms and hypomotility in females
